Test results as given in US10662187B2, “Bruton's tyrosine kinase inhibitors” (Zibo Biopolar Changsheng Pharmaceutical Co. Ltd., priority 2016, dated 2020).
pIC50: −log10 of the molar value. Like-named read-outs stand apart in the source and are kept apart here.

What was measured:
Type in all cases: biochemical
BTK = BTK (Homo sapiens (Human), UniProt Q06187); experiment: Btk kinase assay (HTRF); details: [ATP]=80 μM, BTK=3.4 nM
How it was run: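 HTRF read-out with enzyme, inhibitor, ATP and 1 μM peptide substrate in 50 mM Hepes pH 7.0, 0.02% NaN3, 0.01% BSA, 0.1 mM orthovanadate. Activity measured across compound concentrations against no-inhibitor controls, with no-enzyme wells as baseline.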

EGFR = EGFR (Homo sapiens (Human), UniProt P00533); experiment: EGFR kinase assay
Protocol: Btk Kinase Assay and Other Kinases Assay Btk kinase activity was determined using a homogenous time resolved fluorescence (HTRF) methodology. Measurements were performed in a reaction volume of 15 μL using 384-well assay plates. Kinase enzyme, inhibitor, ATP and 1 μM peptide substrate were incubated in a reaction buffer compose of Hepes 50 mM (pH7.0), NaN3 0.02%, BSA 0.01%, Orthocanadate 0.1 mM. After one hour, the kinase reaction was quenched by the addition of […] antibody and XL-665 in 1×Detection buffer containing 60 mM EDTA (Cisbio), and the mixture was allowed to incubate for one hour. The HTRF signal was measured on a multimode plate reader (EnVision® Multilabel Reader, Perkin Elmer) with an excitation wavelength (λEx) of 330 nm and detection wavelengths (λEm) of 615 and 665 nm. Activity was determined by the ratio of the fluorescence at 665 nm to that at 615 nm. For each compound, enzyme activity as measured at various concentrations of compound, Negative control reactions were performed in the absence of inhibitor in two replicates and eight no enzyme controls were used to determine baseline fluorescence levels. I[…] were obtained according to the equation: […]

BLK = BLK (Homo sapiens (Human), UniProt P51451); experiment: BLK kinase assay (HTRF); details: [ATP]=20 μM, BLK=0.6 nM
Protocol: (§1) Btk Kinase Assay and Other Kinases Assay Btk kinase activity was determined using a homogenous time resolved fluorescence (HTRF) methodology. Measurements were performed in a reaction volume of 15 μL using 384-well assay plates. Kinase enzyme, inhibitor, ATP and 1 μM peptide substrate were incubated in a reaction buffer compose of Hepes 50 mM (pH7.0), NaN3 0.02%, BSA 0.01%, Orthocanadate 0.1 mM. After one hour, the kinase reaction was quenched by the addition of […] antibody and XL-665 in 1×Detection buffer containing 60 mM EDTA (Cisbio), and the mixture was allowed to incubate for one hour. The HTRF signal was measured on a multimode plate reader (EnVision® Multilabel Reader, Perkin Elmer) with an excitation wavelength (λEx) of 330 nm and detection wavelengths (λEm) of 615 and 665 nm. Activity was determined by the ratio of the fluorescence at 665 nm to that at 615 nm. For each compound, enzyme activity as measured at various concentrations of compound, Negative control reactions were performed in the absence of inhibitor in two replicates and eight no enzyme controls were used to determine baseline fluorescence levels. I[…] were obtained according to the equation: […] For LYN assay, [ATP]=20 μM, LYN=0.12 nM. For LCK assay, [ATP]=20 μM, LCK=0.2 nM. For BLK assay, [ATP]=20 μM, BLK=0.6 nM.

LYN = LYN (Homo sapiens (Human), UniProt P07948); experiment: LYN kinase assay (HTRF); details: [ATP]=20 μM, LYN=0.12 nM
Protocol: as §1

LCK = LCK (Homo sapiens (Human), UniProt P06239); experiment: LCK kinase assay (HTRF); details: [ATP]=20 μM, LCK=0.2 nM
Protocol: as §1

Chain of BTK (Q06187 whole entry, species assumed): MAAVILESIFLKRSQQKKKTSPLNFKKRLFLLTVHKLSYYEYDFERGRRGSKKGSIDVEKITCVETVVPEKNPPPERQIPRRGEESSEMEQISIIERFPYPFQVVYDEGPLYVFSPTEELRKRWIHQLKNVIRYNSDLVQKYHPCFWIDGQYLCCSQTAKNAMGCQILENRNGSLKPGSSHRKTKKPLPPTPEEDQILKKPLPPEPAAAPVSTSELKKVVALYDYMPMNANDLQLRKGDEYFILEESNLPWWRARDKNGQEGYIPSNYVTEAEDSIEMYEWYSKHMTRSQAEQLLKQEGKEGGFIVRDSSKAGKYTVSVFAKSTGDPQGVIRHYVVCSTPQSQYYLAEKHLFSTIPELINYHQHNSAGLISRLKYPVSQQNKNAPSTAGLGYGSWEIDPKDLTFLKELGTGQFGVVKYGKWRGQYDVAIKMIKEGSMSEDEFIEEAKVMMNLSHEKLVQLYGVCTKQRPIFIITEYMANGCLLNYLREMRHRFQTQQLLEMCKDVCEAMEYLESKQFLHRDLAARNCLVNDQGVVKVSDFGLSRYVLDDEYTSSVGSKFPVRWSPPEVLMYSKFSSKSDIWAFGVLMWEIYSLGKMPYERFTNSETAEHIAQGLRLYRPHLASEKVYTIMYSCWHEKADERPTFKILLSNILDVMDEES
Chain of LCK (P06239 whole entry, species assumed): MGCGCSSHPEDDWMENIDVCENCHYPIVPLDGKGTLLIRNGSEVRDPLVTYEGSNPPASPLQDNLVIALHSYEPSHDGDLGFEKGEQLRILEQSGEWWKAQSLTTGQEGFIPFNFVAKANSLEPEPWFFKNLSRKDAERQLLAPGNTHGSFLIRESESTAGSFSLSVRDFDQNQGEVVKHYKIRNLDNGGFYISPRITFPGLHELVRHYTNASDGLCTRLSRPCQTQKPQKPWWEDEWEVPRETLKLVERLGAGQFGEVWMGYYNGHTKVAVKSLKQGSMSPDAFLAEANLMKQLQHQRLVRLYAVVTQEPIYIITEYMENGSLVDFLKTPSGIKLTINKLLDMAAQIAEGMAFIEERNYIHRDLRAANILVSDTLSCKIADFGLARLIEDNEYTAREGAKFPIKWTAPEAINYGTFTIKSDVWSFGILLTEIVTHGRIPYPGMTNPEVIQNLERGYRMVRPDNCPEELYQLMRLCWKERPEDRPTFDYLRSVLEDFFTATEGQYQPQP
Chain of LYN (P07948 whole entry, species assumed): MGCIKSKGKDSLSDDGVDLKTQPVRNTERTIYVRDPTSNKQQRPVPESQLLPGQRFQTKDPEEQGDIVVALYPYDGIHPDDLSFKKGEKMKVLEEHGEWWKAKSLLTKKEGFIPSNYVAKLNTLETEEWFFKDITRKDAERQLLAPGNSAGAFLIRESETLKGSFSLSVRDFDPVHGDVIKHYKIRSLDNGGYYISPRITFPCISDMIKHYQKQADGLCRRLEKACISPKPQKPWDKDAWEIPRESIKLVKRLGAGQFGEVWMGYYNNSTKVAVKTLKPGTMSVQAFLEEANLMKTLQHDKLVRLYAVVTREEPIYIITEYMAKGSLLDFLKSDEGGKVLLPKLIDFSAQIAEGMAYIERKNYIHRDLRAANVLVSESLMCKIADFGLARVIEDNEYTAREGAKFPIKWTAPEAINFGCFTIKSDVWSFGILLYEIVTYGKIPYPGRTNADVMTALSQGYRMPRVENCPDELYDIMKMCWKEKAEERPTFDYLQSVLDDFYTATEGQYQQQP
Chain of BLK (P51451 whole entry, species assumed): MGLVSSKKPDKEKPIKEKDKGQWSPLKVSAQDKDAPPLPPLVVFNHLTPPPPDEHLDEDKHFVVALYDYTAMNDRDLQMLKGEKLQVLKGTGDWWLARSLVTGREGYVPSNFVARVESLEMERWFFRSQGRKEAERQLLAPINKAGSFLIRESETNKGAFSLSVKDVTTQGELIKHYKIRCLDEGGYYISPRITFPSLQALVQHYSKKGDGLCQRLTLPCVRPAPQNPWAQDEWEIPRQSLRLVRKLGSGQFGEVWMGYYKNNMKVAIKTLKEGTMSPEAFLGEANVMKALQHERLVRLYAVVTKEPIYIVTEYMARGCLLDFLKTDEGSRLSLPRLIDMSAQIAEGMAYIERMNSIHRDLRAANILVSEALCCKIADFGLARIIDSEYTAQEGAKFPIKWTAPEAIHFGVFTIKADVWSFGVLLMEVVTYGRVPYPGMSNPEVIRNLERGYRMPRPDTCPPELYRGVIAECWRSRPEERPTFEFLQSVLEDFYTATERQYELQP
Chain of EGFR (P00533 25-1210, species assumed): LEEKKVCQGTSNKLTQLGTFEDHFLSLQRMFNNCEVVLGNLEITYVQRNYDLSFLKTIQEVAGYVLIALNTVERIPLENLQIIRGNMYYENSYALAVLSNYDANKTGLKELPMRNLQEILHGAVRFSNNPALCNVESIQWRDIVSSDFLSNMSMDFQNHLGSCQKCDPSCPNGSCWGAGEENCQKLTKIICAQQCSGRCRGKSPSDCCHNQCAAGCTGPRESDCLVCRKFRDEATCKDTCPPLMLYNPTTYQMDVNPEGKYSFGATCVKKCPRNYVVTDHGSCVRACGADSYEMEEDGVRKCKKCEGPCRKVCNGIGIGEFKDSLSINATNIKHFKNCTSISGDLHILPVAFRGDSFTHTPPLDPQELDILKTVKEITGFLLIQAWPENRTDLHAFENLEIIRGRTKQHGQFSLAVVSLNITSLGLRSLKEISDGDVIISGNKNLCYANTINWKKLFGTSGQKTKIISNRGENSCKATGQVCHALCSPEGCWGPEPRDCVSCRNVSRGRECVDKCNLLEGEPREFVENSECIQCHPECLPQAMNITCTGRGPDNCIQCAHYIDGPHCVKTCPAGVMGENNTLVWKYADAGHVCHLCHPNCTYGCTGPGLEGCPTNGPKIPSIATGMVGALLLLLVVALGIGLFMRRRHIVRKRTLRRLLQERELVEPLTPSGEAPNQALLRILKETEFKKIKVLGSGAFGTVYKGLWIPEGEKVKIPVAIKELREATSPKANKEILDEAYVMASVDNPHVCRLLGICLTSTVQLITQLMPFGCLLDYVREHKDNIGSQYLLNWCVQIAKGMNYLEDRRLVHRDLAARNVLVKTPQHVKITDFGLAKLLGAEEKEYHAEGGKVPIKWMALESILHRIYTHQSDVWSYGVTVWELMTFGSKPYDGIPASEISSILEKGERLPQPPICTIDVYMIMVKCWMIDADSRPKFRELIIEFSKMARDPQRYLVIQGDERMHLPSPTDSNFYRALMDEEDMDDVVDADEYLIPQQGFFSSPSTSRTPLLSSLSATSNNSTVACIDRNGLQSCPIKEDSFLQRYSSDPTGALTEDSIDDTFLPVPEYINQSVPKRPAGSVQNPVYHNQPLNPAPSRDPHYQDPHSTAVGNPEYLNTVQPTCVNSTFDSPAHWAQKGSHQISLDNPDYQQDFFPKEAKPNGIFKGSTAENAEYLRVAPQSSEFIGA

SMILES	pIC50 (BTK; read-out: BTK IC50)	pIC50 (BTK; read-out: BTK Inhibition)	pIC50 (EGFR)	pIC50 (BLK)	pIC50 (LYN)	pIC50 (LCK)
C=CC(=O)N1CC[C@@H](n2nc(-c3ccc(Oc4ccccc4)cc3)c3cnccc32)C1 [Compound 1, (R)-1-(3-(3-(4-phenoxyphenyl)-1H-pyrazolo[4,3-c]pyridin-1-yl)pyrrolidin-1-yl)prop-2-en-1-one]	> 8.00	> 8.00	6.00 to 7.00	> 8.00	≥ 5.00	5.00 to 6.00
C=CC(=O)N1CCC[C@@H](n2nc(-c3ccc(Oc4cccc(OC)c4F)cc3)c3cncc(OC)c32)C1 [Compound 6, (R)-1-(3-(3-(4-(2-fluoro-3-methoxyphenoxy)phenyl)-7-methoxy-1H-pyrazolo[4,3-c]pyridin-1-yl)piperidin-1-yl)prop-2-en-1-one]	> 8.00	> 8.00	6.00 to 7.00	7.00 to 8.00	5.00 to 6.00	5.00 to 6.00
